Test results taken from publication PMC2248166, “Quantitative peptide binding motifs for 19 human and mouse MHC class I molecules derived using positional scanning combinatorial peptide libraries” (Immunome Research, 2008).

Tests used:
HLA B*5801 = HLA B*5801 (Homo sapiens, UniProt P01889, A329T/C349S/D201E/D98Y/E176V/E187L/E204Q/E69T/G107R/I218V/I90N/K202T/L105A/L119I/N104I/N87E/Q89R/Q94S/R106L/R155S/R180L/R86G/S101N/S121R/S35A/S48A/T118I/V127L/V306I/V36M/Y140S/Y91M); assay type: binding
HLA A*0201 = HLA A*0201 (Homo sapiens, UniProt P04439, D140Y/D185E/D98H/E176V/E277Q/G131W/G231S/I119V/I121R/I166T/I218V/L300P/L318F/N151K/N90K/P208A/P217A/Q86G/Q94H/R138H/R169H/T345S); conditions: positional scanning combinatorial 9-mer library; normalized to 1.0 for the best residue at each position
HLA B*1503 = HLA B*1503 (Homo sapiens, UniProt P01889, A329T/A93T/A95T/C349S/D201E/D98Y/E187L/E204Q/K202T/N87E/Q94N/R155S/R180L/S121R/S35A/V306I/V36M/Y140S/Y91S); experiment: biochemical; assay type: binding
HLA B*5401 = HLA B*5401 (Homo sapiens, UniProt P01889, A329T/C349S/D138N/D201E/E176V/E187T/E204Q/E69G/I76V/K202T/L119W/R155S/R180L/S121T/S35A/S48A/V127L/V306I/V36M/Y140L); assay type: binding
H-2 D^d = H-2 D^d (Mus musculus, UniProt P01900); assay type: binding
H-2 K^k = H-2 K^k (Mus musculus, UniProt P04223); assay type: binding
H-2 D^b = H-2 D^b (Mus musculus, UniProt P01899); assay type: binding
HLA B*0702 = HLA B*0702 (Homo sapiens, UniProt P01889); assay type: binding; conditions: positional scanning combinatorial 9-mer library; normalized to 1.0 for the best residue at each position
HLA A*3201 = HLA A*3201 (Homo sapiens, UniProt P04439, A270S/D101S/D185E/E176V/E277Q/F133L/G103R/G107R/G231S/H175R/I121M/I218V/I322F/K168Q/L105A/L300P/L318F/M331R/P208A/P217A/Q94H/R106L/R138Q/S129P/T104I/T323A/T345S/V100E/V321M/V358M); experiment: biochemical; assay type: binding
HLA A*3001 = HLA A*3001 (Homo sapiens, UniProt P04439, D140H/D185E/E176W/F33S/G80R/H175R/K168Q/R138E/R41S); experiment: biochemical; assay type: binding
HLA B*3501 = HLA B*3501 (Homo sapiens, UniProt P01889, A329T/A93T/A95T/C349S/D201E/D98Y/E176V/E187L/E204Q/E69T/I218V/K202T/L119I/Q94N/R155S/R180L/S121R/S35A/S48A/T118I/V127L/V306I/V36M/Y140S/Y91F); assay type: binding
HLA B*5101 = HLA B*5101 (Homo sapiens, UniProt P01889, A329T/A93T/A95T/C349S/D138N/D201E/D98Y/E187L/E204Q/E69T/G107R/I218V/K202T/L105A/L119W/N104I/Q94N/R106L/R155S/R180L/S101N/S121T/S35A/S48A/V306I/V36M/Y195H/Y91F); assay type: binding
HLA B*1501 = HLA B*1501 (Homo sapiens, UniProt P01889, A329T/A93T/A95T/C349S/D201E/D98Y/E187L/E204Q/E69M/E70A/K202T/N87E/Q94N/R155S/R180W/S121R/S35A/S48A/V306I/V36M/Y140S/Y91S); experiment: biochemical; assay type: binding
HLA B*5301 = HLA B*5301 (Homo sapiens, UniProt P01889, A329T/A93T/A95T/C349S/D201E/D98Y/E176V/E187L/E204Q/E69T/G107R/I218V/K202T/L105A/L119I/N104I/Q94N/R106L/R155S/R180L/S101N/S121R/S35A/S48A/T118I/V127L/V306I/V36M/Y140S/Y91F); assay type: binding
HLA A*6802 = HLA A*6802 (Homo sapiens, UniProt P04439, A269V/D140Y/D185E/E176V/E277Q/E87N/F33Y/G231S/I121R/I166T/I218V/L180W/L300P/L318F/N151K/P208A/P217A/Q86R/R138H/R169H/S129P/T345S/V36M); assay type: binding
HLA B*5802 = HLA B*5802 (Homo sapiens, UniProt P01889, A329T/C349S/D201E/D98Y/E176V/E187L/E204Q/E69T/G107R/I218V/I90N/K202T/L105A/N104I/N87E/Q89R/Q94S/R106L/R155S/R180L/R86G/S101N/S121W/S35A/S48A/V127L/V306I/V36M/Y140S/Y91M); assay type: binding
HLA B*2705 = HLA B*2705 (Homo sapiens, UniProt P01889, D138H/D201E/E176V/E204Q/G107R/H137Y/K202T/N104T/N87E/Q56L/Q94K/R106L/R155S/R180L/S101D/S121N/S48T/Y140D/Y33H/Y91C); assay type: binding; conditions: positional scanning combinatorial 9-mer library; normalized to 1.0 for the best residue at each position
HLA B*0801 = HLA B*0801 (Homo sapiens, UniProt P01889, A93T/A95T/D138N/E176V/E187T/K202T/Q94N/R180D/S35A/V36M/Y33D/Y91F); experiment: biochemical; assay type: binding

Chain of H-2 D^d (P01900 whole entry, looked up): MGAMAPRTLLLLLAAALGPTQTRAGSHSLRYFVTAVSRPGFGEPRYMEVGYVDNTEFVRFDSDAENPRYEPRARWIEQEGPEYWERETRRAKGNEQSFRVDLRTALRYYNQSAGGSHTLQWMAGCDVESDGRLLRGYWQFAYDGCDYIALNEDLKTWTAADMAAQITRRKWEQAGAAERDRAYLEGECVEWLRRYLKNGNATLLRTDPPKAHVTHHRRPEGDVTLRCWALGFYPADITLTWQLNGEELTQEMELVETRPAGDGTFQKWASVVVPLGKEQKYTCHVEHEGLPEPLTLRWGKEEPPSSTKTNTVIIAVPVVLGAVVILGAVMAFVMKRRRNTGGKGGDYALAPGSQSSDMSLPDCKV
Chain of H-2 K^k (P01887 21-119): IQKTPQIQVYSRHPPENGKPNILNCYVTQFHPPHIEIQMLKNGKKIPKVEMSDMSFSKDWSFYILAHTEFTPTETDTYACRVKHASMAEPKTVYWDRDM
Chain of H-2 K^k (P04223 22-369): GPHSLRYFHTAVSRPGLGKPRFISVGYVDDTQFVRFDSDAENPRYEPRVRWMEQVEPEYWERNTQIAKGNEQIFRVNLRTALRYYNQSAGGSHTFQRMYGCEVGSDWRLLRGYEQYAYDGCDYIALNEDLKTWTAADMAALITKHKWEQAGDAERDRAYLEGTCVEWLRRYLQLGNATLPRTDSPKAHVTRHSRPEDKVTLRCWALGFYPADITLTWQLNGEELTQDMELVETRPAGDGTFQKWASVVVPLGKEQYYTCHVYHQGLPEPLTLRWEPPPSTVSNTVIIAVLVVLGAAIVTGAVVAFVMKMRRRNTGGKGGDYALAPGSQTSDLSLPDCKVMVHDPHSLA
Chain of H-2 D^b (P01887 21-119): as the sequence (P01887 21-119) above
Chain of H-2 D^b (P01899 25-362): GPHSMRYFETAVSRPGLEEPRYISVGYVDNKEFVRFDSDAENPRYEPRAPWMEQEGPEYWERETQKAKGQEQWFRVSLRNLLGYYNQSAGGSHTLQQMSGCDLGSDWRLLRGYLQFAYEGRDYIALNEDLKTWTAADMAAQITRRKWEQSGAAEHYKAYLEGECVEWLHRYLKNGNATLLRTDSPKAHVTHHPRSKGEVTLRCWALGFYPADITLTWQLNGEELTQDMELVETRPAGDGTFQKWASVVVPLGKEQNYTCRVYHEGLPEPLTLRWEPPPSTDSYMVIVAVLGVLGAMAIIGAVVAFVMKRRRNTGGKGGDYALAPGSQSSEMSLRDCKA

Sequence	Normalized average relative binding affinity (ARB), HLA B*5801 (HLA B*5801)	Normalized average relative binding affinity (ARB), HLA A*0201 (HLA A*0201)	Normalized average relative binding affinity (ARB), HLA B*1503 (HLA B*1503)	Normalized average relative binding affinity (ARB), HLA B*5401 (HLA B*5401)	Normalized average relative binding affinity (ARB), H-2 Dd (H-2 D^d)	Normalized average relative binding affinity (ARB), H-2 Kk (H-2 K^k)	Normalized average relative binding affinity (ARB), H-2 Db (H-2 D^b)	Normalized average relative binding affinity (ARB), HLA B*0702 (HLA B*0702)	Normalized average relative binding affinity (ARB), HLA A*3201 (HLA A*3201)	Normalized average relative binding affinity (ARB), HLA A*3001 (HLA A*3001)	Normalized average relative binding affinity (ARB), HLA B*3501 (HLA B*3501)	Normalized average relative binding affinity (ARB), HLA B*5101 (HLA B*5101)	Normalized average relative binding affinity (ARB), HLA B*1501 (HLA B*1501)	Normalized average relative binding affinity (ARB), HLA B*5301 (HLA B*5301)	Normalized average relative binding affinity (ARB), HLA A*6802 (HLA A*6802)	Normalized average relative binding affinity (ARB), HLA B*5802 (HLA B*5802)	Normalized average relative binding affinity (ARB), HLA B*2705 (HLA B*2705)	Normalized average relative binding affinity (ARB), HLA B*0801 (HLA B*0801)
MXXXXXXXX [3064.0011]	0.70	0.25	0.40	1.0	0.75	0.78	0.18	0.56	0.76	0.37	0.90	0.32	0.89	0.26	0.75	0.21	0.44	0.79
NXXXXXXXX [3064.0012]	0.056	0.067	0.14	0.12	0.19	0.80	0.31	0.15	0.13	0.065	0.29	0.19	0.22	0.027	0.24	0.063	0.095	0.43
PXXXXXXXX [3064.0013]	0.030	0.0032	0.018	0.0097	0.095	0.052	0.030	0.029	0.055	0.0059	0.023	0.037	0.059	0.0038	0.0050	0.059	0.022	0.012
QXXXXXXXX [3064.0014]	0.17	0.019	0.074	0.031	0.39	0.45	0.060	0.065	0.23	0.063	0.081	0.037	0.25	0.021	0.039	0.033	0.067	0.048
RXXXXXXXX [3064.0015]	0.79	0.084	0.56	0.027	0.41	0.11	0.12	1.0	0.97	1.0	0.045	0.028	0.67	0.020	0.044	0.52	1.0	0.19
SXXXXXXXX [3064.0016]	0.16	0.10	0.50	0.056	0.24	0.54	0.12	0.35	0.39	0.32	0.10	0.051	0.42	0.055	0.41	0.097	0.19	1.0
